Experimental data: patent publication US9295671B2, “Benzenesulfonamide derivatives of quinoxaline, pharmaceutical compositions thereof, and their use in methods for treating cancer” (NEUPHARMA, INC., priority 2011, dated 2016)

Columns and labels:
BRAF = target: T1, BRAF (Homo sapiens, UniProt P15056); assay: LanthaScreen kinase assay, BRAF; format: biochemical; conditions: ATP 1 μM
T1 construct: purchased Invitrogen
Procedure: (§1) The inhibitory activities of compounds against BRAF or BRAF V600E protein were measured using Invitrogne's LanthaScreen™ kinase assay which is based on fluorescein-labeled MAP2K1 as a substrate. The assay procedure is described as follows.
(§2) The scale utilized in Table 3 is as follows: ++++ less than 50 nM; +++ between 50 and 100 nM; ++ between 100 nM and 1 μM; and + greater than 1 μM.

BRAF V600E = target: T2, BRAF V600E (Homo sapiens, UniProt P15056, V600E); assay: LanthaScreen kinase assay, BRAF V600E; format: biochemical; conditions: ATP 10 μM
T2 construct: purchased Invitrogen
T2 sequence (P15056 whole entry V600E): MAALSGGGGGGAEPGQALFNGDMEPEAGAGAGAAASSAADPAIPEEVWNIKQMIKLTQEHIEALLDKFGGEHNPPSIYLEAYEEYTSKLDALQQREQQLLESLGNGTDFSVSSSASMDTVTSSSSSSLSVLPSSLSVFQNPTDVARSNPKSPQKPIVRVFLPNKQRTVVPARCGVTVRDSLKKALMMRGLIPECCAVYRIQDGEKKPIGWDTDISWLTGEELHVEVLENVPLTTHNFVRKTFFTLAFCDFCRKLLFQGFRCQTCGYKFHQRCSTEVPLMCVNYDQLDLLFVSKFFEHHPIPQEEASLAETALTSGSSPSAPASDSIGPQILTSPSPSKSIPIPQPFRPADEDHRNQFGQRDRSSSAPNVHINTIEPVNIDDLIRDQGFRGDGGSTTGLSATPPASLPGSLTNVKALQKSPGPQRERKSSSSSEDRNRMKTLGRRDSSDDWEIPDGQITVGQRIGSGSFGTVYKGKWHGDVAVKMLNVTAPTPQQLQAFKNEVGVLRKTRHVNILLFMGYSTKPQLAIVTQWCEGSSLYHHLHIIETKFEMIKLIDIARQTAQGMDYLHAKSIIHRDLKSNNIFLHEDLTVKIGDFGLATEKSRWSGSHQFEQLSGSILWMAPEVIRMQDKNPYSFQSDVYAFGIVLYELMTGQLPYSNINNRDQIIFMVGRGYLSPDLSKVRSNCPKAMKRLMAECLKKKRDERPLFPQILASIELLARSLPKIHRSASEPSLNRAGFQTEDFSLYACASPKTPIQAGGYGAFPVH
Procedure: as §1, §2

[1] = test system: A375 (human melanoma cell, BRAF V600E Mutant); assay: Inhibition of cancer cell growth, MTT or MTS assay, A375; format: cell-based; conditions: A-375, 72 h, highest concentration 10 μM (Table 5)
Procedure: A375 (human melanoma cell, BRAF V600E Mutant), CHL-1 (human melanoma cell, BRAF wild type), SK-MEL-28 (human melanoma cell, BRAF V600E Mutant) and SK-MEL-31(human melanoma cell, Braf WT Mutant) were purchased from ATCC (American Type Culture Collection, Manassas, Va.). All cell lines were maintained in RPMI 1640 (Hyclone) or DMEM (Hyclone) supplemented with 10% fetal bovine serum (FBS, Hyclone), glutamine (2 mM, Hyclone), and antibiotics (penicillin 100 U/mL and streptomycin 50 μg/mL) at 37° C. in a humidified atmosphere of 5% CO2 in air.
To test IC50 of inhibition of individual compounds against each cell line, A375, SK-MEL-28and SK-MEL-31 cells were first plated in 96-well plates at densities of 3000 cells/well, and CHL-1 2500 cells/well. Cells were then incubated to allow cells to adhere and grow for 24 h. Cells were then treated with a series of concentrations of compounds for 72 h. The highest concentration of compounds was 10 μM for A375 and SK-MEL-28 cells and 100 μM for CHL-1 and SK-MEL-31 cells. Cells were then removed from the incubator and medium was removed by inverting and tapping the plates. 100 μL of MTT (0.5 mg/ml) or 10 μL or MTS was added to each well followed by an incubated at 37° C. for 4 h. Then MTT was removed and 200 μL of DMSO was added to each well, followed by reading the ODs at 570 nm after a 5 second shaking cycle in a 96-well spectrophotometer. For MTS method, MTS was not removed, and the incubated solutions were directly put in a 96-well spectrophotometer for the reading of the ODs at 492 nm.
IC50 was calculated by plotting the concentration of compound vs the percentage of inhibition in treated wells using GraphPad Prism 5. […] The scale utilized in Table 5 is as follows: +++ less than 500 nM; ++ between 500 nM and 1 μM; and + greater than 1 μM.

T1 sequence (P15056 whole entry): as the sequence (P15056 whole entry V600E) above, with E600V counted along it

| IC50 (BRAF) [nM] | IC50 (BRAF V600E) [nM] | IC50 [1] [nM] | SMILES |
| --- | --- | --- | --- |
| 50 to 100 | 50 to 100 | < 500 | CCCS(=O)(=O)Nc1cc(F)c(F)c(C(=O)c2ccc3ncc(OCCOC)nc3c2)c1F [Compound C22, N-(2,4,5-trifluoro-3-(3-(2-methoxyethoxy)quinoxaline-6-carbonyl)phenyl)propane-1-sulfonamide] |
| 100 to 1000 | 50 to 100 | 500 to 1000 | CCCS(=O)(=O)Nc1cc(F)c(F)c(C(=O)c2ccc3ncc(-c4ccc(F)cc4)nc3c2)c1F [Compound C28, N-(2,4,5-trifluoro-3-(3-(4-fluorophenyl)quinoxaline-6-carbonyl)phenyl)propane-1-sulfonamide] |
| 100 to 1000 | 100 to 1000 | > 1000 | CCCS(=O)(=O)Nc1cc(F)c(F)c(C(=O)c2ccc3ncc(C)nc3c2)c1F [Compound C19, N-(2,4,5-trifluoro-3-(3-methylquinoxaline-6-carbonyl)phenyl)propane-1-sulfonamide] |
| < 50 | < 50 | < 500 | CCCS(=O)(=O)Nc1cc(F)c(F)c(C(=O)c2ccc3ncc(-c4cn[nH]c4)nc3c2)c1F [Compound C27, N-(3-(3-(1H-pyrazol-4-yl)quinoxaline-6-carbonyl)-2,4,5-trifluorophenyl)propane-1-sulfonamide] |
| < 50 | < 50 | < 500 | CCCS(=O)(=O)Nc1cc(F)c(F)c(C(=O)c2ccc3ncc(N4CCNCC4)nc3c2)c1F [Compound C24, N-(2,4,5-trifluoro-3-(3-(piperazin-1-yl)quinoxaline-6-carbonyl)phenyl)propane-1-sulfonamide] |
| 50 to 100 | < 50 | 500 to 1000 | CCCS(=O)(=O)Nc1cc(F)c(F)c(C(=O)c2ccc3ncc(C#N)nc3c2)c1F [Compound C36, N-(3-(3-cyanoquinoxaline-6-carbonyl)-2,4,5-trifluorophenyl)propane-1-sulfonamide] |
| < 50 | < 50 | < 500 | CCCS(=O)(=O)Nc1cc(F)c(F)c(C(=O)c2ccc3ncc(-n4ccnc4)nc3c2)c1F [Compound C23, N-(3-(3-(1H-imidazol-1-yl)quinoxaline-6-carbonyl)-2,4,5-trifluorophenyl)propane-1-sulfonamide] |
| < 50 | < 50 | < 500 | CCCS(=O)(=O)Nc1cc(F)c(F)c(C(=O)c2ccc3ncc(-n4cnc(C)c4)nc3c2)c1F [Compound C21, N-(2,4,5-trifluoro-3-(3-(4-methyl-1H-imidazol-1-yl)quinoxaline-6-carbonyl)phenyl)propane-1-sulfonamide] |
| > 1000 | > 1000 |  | CCCS(=O)(=O)Nc1ccc(F)c(C(=O)c2ccc3ncc(N4CCOCC4)nc3c2)c1Cl [Compound C41, N-(2-chloro-4-fluoro-3-(3-morpholinoquinoxaline-6-carbonyl)phenyl)propane-1-sulfonamide] |
| 50 to 100 | < 50 | < 500 | CCCS(=O)(=O)Nc1cc(F)c(F)c(C(=O)c2ccc3ncc(-n4cncc4C)nc3c2)c1F [Compound C40, N-(2,4,5-trifluoro-3-(3-(5-methyl-1H-imidazol-1-yl)quinoxaline-6-carbonyl)phenyl)propane-1-sulfonamide] |
| 50 to 100 | < 50 | < 500 | CCCS(=O)(=O)Nc1cc(F)c(F)c(C(=O)c2ccc3ncc(-n4ccnc4C)nc3c2)c1F [Compound C20, N-(2,4,5-trifluoro-3-(3-(2-methyl-1H-imidazol-1-yl)quinoxaline-6-carbonyl)phenyl)propane-1-sulfonamide] |
| < 50 | < 50 | < 500 | CCCS(=O)(=O)Nc1cc(F)c(F)c(C(=O)c2ccc3ncc(-c4cccnc4)nc3c2)c1F [Compound C30, N-(2,4,5-trifluoro-3-(3-(pyridin-3-yl)quinoxaline-6-carbonyl)phenyl)propane-1-sulfonamide] |
| < 50 | < 50 | < 500 | CCCS(=O)(=O)Nc1cc(F)c(F)c(C(=O)c2ccc3ncc(-c4ccncc4)nc3c2)c1F [Compound C33, N-(2,4,5-trifluoro-3-(3-(pyridin-4-yl)quinoxaline-6-carbonyl)phenyl)propane-1-sulfonamide] |
| 100 to 1000 | 100 to 1000 | < 500 | CCCS(=O)(=O)Nc1ccc(F)c(C(=O)c2ccc3ncc(N4CCOCC4)nc3c2)c1F [Compound C38, N-(2,4-difluoro-3-(3-morpholinoquinoxaline-6-carbonyl)phenyl)propane-1-sulfonamide] |
| 100 to 1000 | 100 to 1000 | < 500 | O=C(c1ccc2ncc(N3CCOCC3)nc2c1)c1c(F)c(F)cc(NS(=O)(=O)C2CC2)c1F [Compound C29, N-(2,4,5-trifluoro-3-(3-morpholinoquinoxaline-6-carbonyl)phenyl)cyclopropanesulfonamide] |
| < 50 | < 50 | < 500 | CCCS(=O)(=O)Nc1cc(F)c(F)c(C(=O)c2ccc3ncc(-c4ccc(C)nc4)nc3c2)c1F [Compound C34, N-(2,4,5-trifluoro-3-(3-(6-methylpyridin-3-yl)quinoxaline-6-carbonyl)phenyl)propane-1-sulfonamide] |
| 100 to 1000 | < 50 | 500 to 1000 | CCCS(=O)(=O)Nc1cc(F)c(F)c(C(=O)c2ccc3ncc(-c4ccccc4)nc3c2)c1F [Compound C26, N-(2,4,5-trifluoro-3-(3-phenylquinoxaline-6-carbonyl)phenyl)propane-1-sulfonamide] |
| 50 to 100 | < 50 | > 1000 | CCCS(=O)(=O)Nc1cc(F)c(F)c(C(=O)c2ccc3ncc(F)nc3c2)c1F [Compound C35, N-(2,4,5-trifluoro-3-(3-fluoroquinoxaline-6-carbonyl)phenyl)propane-1-sulfonamide] |
